The record followed here is patent US20060045953A1 (priority 2004, published 2006).

For series [1], the target named is T1, hT1R1/hT1R3 umami receptor (Homo sapiens, UniProt Q7RTX0+Q7RTX1).
T1 construct: expressed in transfected cells; host or cells: HEK293 derivative stably expressing Gα15, clone I-17, expression induced with mifepristone
T1 sequence (Q7RTX1 21-841): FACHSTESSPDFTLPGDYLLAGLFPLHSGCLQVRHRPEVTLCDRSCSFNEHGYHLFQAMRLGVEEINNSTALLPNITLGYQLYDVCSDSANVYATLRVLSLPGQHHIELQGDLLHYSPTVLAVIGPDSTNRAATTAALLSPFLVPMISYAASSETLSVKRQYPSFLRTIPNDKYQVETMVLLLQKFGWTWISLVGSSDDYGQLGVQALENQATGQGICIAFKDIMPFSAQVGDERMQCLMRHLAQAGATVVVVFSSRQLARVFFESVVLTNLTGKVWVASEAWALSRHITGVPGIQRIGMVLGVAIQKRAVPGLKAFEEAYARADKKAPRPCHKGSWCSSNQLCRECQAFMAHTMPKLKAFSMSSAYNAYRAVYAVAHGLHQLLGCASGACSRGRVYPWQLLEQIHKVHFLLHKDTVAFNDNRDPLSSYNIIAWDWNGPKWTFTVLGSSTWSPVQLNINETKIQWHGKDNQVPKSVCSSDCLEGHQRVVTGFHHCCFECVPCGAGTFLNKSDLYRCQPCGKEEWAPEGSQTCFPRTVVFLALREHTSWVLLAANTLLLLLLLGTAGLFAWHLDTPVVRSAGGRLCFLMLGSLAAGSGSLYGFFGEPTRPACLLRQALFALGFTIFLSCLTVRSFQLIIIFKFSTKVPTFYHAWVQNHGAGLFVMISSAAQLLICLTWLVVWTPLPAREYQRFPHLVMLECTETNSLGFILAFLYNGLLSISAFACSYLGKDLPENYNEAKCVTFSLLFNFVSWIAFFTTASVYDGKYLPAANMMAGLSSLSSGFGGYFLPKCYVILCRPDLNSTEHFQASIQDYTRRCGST
T1 sequence (Q7RTX0 21-852): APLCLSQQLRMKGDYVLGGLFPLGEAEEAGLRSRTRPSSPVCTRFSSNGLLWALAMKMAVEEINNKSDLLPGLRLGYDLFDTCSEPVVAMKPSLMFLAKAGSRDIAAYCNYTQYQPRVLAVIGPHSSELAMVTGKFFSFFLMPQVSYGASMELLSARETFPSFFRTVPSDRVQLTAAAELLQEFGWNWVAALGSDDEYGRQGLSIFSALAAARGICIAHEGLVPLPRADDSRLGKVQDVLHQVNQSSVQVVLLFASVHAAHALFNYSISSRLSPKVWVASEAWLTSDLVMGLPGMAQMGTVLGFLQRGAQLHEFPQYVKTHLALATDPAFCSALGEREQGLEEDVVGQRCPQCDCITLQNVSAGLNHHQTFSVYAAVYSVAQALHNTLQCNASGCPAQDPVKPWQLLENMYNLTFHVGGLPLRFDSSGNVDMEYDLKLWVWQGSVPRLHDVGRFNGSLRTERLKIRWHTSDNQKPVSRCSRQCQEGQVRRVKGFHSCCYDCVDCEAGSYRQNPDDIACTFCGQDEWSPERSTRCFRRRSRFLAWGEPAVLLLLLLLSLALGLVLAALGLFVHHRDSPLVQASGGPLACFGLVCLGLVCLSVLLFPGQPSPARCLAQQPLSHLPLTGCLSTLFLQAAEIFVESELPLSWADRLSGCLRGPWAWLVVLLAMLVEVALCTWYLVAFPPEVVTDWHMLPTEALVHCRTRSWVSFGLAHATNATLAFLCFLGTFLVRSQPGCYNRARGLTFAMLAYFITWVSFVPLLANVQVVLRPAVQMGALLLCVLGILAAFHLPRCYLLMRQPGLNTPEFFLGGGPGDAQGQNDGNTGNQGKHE
Kind of series: In vitro hT1R1/hT1R3 umami taste receptor activation assay (FLIPR, dose response). The format is cell-based.

Series [2] concerns the target T2, hT1R2/hT1R3 sweet receptor (Homo sapiens, UniProt Q7RTX0+Q8TE23).
T2 construct: expressed in transfected cells; host or cells: HEK293 derivative stably expressing Gα15, clone S-9
T2 sequence (Q8TE23 20-839): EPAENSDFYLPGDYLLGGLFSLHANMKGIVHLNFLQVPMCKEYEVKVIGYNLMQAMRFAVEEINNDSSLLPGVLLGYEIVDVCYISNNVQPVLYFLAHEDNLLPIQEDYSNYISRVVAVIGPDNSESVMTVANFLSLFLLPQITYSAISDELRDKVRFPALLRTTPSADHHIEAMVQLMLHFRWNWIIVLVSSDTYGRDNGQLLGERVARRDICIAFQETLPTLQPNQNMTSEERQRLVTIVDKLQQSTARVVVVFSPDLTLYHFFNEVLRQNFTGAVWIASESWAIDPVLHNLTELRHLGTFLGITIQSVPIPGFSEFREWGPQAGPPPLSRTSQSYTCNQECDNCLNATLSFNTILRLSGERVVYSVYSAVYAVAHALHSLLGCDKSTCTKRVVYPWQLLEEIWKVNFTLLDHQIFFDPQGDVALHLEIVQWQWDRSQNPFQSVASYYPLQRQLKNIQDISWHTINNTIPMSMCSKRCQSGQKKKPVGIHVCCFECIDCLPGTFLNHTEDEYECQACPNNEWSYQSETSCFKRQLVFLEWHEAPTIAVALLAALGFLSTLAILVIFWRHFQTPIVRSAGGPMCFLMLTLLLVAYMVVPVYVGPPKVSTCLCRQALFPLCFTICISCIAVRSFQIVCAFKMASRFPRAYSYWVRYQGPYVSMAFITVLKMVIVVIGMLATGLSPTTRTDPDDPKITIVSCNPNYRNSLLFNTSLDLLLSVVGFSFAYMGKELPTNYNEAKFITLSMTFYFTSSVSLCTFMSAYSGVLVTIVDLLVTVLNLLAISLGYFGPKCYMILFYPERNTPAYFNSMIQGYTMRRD
T2 sequence (Q7RTX0 21-852): T1 sequence (Q7RTX0 21-852)
As to the kind of experiment: In vitro hT1R2/hT1R3 sweet taste receptor activation assay (FLIPR, dose response). In kind it is cell-based. The essentials: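 Dose-response at 10 concentrations (60 nM–30 µM, duplicates) measured as Fluo-3AM calcium fluorescence on FLIPR in hT1R2/hT1R3 S-9 cells, in D-PBS at room temperature. Responses scaled to 400 mM D-fructose. EC50s from regression with all curve parameters floating.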

[3] abbreviates: read-out: EC50 for activation of a hT1R1/hT1R3 umami receptor expressed in an HEK293 cell line.
[4] abbreviates: Table E, Sweet Enhancer Amides, read-out: Sweet EC50.
Where [5] appears, read: read-out: EC50 for activation of a hT1R2/hT1R3 sweet receptor expressed in an HEK293 cell line.

Where two headings read alike, the source gives them in different places.

Usually melting point stands for the temperature, or range, at which the solid turns liquid. As to `CCCC(CCC)NC(=O)c1ccc2oc(OCC)nc2c1` [Example 43, 2-Ethoxy-benzooxazole-5-carboxylic acid (1-propyl-butyl)-amide], the melting point lay in the range of 128 to 129 °C. The EC50 in series [1] (setting [3]) is 5000 nM.

Regarding `CCCC(CCC)NC(=O)c1ccc2oc(CC)nc2c1` [Example 41, 2-Ethyl-benzooxazole-5-carboxylic acid (1-propyl-butyl)-amide], the melting point was in the range of 107 to 108 °C. Further, the EC50 in series [1] (setting [3]) worked out at 680 nM.

In turn, `Cc1ccsc1CNC(=O)C(=O)NCCc1ccccn1` [Example 124, N-(3-Methyl-thiophen-2-ylmethyl)-N′-(2-pyridin-2-yl-ethyl)-oxalamide] gave a melting point of 122 to 124 °C. Also, in series [1] (setting [3]), the EC50 worked out at 370 nM.

`CCCC(CCC)NC(=O)Nc1ccc(OC)cc1OC` [Example 159, 1-(2,4-dimethoxyphenyl)-3-(heptan-4-yl)urea] gave a melting point of 172 to 173 °C. In addition, the EC50 in series [1] (setting [3]) was found to be 980 nM.

Compound `CCCC(CCC)NC(=O)c1ccc2oc(CCl)nc2c1` [Example 45, Chloromethyl benzooxazol-5-carboxylic acid (1-propyl-butyl)amide] came in with a melting point of 108.5 to 109 °C. Further, the EC50 in series [1] (setting [3]) stood at 230 nM.

Consider `Cc1ccc(CNC(=O)C(=O)NCCc2ccccn2)n1C` [Example 131, N-(1,5-Dimethyl-1H-pyrrol-2-ylmethyl)-N′-(2-pyridin-2-yl-ethyl)-oxalamide], for which the melting point was 147 to 149 °C. Besides, in series [1] (setting [3]), the EC50 amounted to 2300 nM.

As to `COc1ccc(CNC(=O)C(=O)NCCc2cccs2)c(OC)c1` [Example 156, N-(2,4-Dimethoxybenzyl)-N′-(2-(thiophen-2-yl)ethyl)oxalamide], the melting point fell in the range of 146 to 147 °C. Besides, in series [1] (setting [3]), the EC50 turned out to be 4870 nM.

The compound `CCOc1ccc(CNC(=O)C(=O)NCCc2ccccn2)c(OC)c1` [Example 134, N-(4-ethoxy-2-methoxybenzyl)-N′-(2-(pyridin-2-yl)ethyl)oxalamide] came in with a melting point of 117 to 118 °C. In addition, the EC50 in series [1] (setting [3]) came out at 100 nM.

In the case of `CC1CCCCC1NC(=O)c1nsc(Cl)c1Cl` (centres unmarked) [Example E78, 4,5-Dichloro-isothiazole-3-carboxylic acid (2-methyl-cyclohexyl)-amide], the EC50 in series [2] (setting [4]) is 4240 nM; in series [1] (Table E, read-out: Umami EC50) it was 8510 nM.

Regarding `CCCC(CCC)NC(=O)c1ccc2oc(OC)nc2c1` [Example 42, 2-Methoxy-benzooxazole-5-carboxylic acid (1-propyl-butyl)-amide], the melting point was in the range of 137 to 138 °C. The EC50 in series [1] (setting [3]) was determined as 690 nM.

Regarding `CCCC(CCC)NC(=O)c1ccc2oc(SC)nc2c1` [Example 44, N-(heptan-4-yl)-2-(methylthio)benzo[d]oxazole-5-carboxamide], the melting point was in the range of 113 to 114 °C. The EC50 in series [1] (setting [3]) amounted to 3100 nM.

For the compound `CC(C)c1ccc(NC(=O)NCCc2ccccn2)cc1` [Example 161, 1-(4-isopropylphenyl)-3-(2-(pyridine-2-yl)ethyl)urea], the melting point is 72 to 73 °C. The EC50 in series [1] (setting [3]) amounted to 980 nM.

On to `CCCC(CCC)NC(=O)c1cccc(C(F)(F)F)c1` [Example E68, N-(heptan-4-yl)-3-(trifluoromethyl)benzamide], for which the EC50 came to 3030 nM in series [2] (setting [4]) and 330 nM in series [1] (Table E, read-out: Umami EC50).

Regarding `COc1ccc2c(c1)[C@H](NC(=O)c1cccc(Cl)c1O)CCC2` [Example 184, (R)-3-Chloro-2-hydroxy-N-(7-methoxy-1,2,3,4-tetrahydronaphthalen-1-yl)benzamide], the EC50 in series [2] (setting [5]) was 260 nM.

For the compound `COc1cccc2c1CCCC2NC(=O)c1cccc(-c2ccccc2)c1O` (centres unmarked) [Example E123, 2-hydroxy-N-(5-methoxy-1,2,3,4-tetrahydronaphthalen-1-yl)-3-phenylbenzamide], the EC50 in series [2] (setting [4]) worked out at 2560 nM.

In the case of `Cc1cccc(C)c1C(=O)N[C@H]1CCCc2ccccc21` [Example E14, (S)-2,6-dimethyl-N-(1,2,3,4-tetrahydronaphthalen-1-yl)benzamide], the EC50 in series [2] (setting [4]) was 2910 nM.

Consider `COc1ccc(NC(=O)N2Cc3cccc(C)c3C2)c(C)c1` [Example E116, N-(4-methoxy-2-methylphenyl)-4-methylisomdoline-2-carboxamide], for which the EC50 in series [2] (setting [4]) amounted to 710 nM.

As to `N#Cc1ccc(NC(=O)c2c(Cl)cccc2Cl)cc1` [Example E91, 2,6-Dichloro-N-(4-cyano-phenyl)-benzamide], in series [2] (setting [4]), the EC50 was 2740 nM.

For the compound `Cc1c(F)c(F)c(C(=O)NCC(C)C)c(F)c1F` [Example E69, 2,3,5,6-tetrafluoro-N-isobutyl-4-methylbenzamide], the EC50 in series [2] (setting [4]) stood at 3190 nM.

With `O=C(Nc1ccc(Cl)cc1)N1Cc2ccccc2C1` [Example E105, N-(4-chlorophenyl)isoindoline-2-carboxamide], the EC50 in series [2] (setting [4]) was found to be 3400 nM.

With `O=C(N[C@@H]1CCOc2ccccc21)c1cccc(Cl)c1O` [Example 185, (R)-3-Chloro-N-(3,4-dihydro-2H-chromen-4-yl)-2-hydroxybenzamide], the EC50 in series [2] (setting [5]) is 1030 nM.

Regarding `Cc1ccc2c(c1)C(NC(=O)c1cccc(Cl)c1O)CCC2` (centres unmarked) [Example 178, 3-Chloro-2-hydroxy-N-(7-methyl-1,2,3,4-tetrahydronaphthalen-1-yl)benzamide], the EC50 in series [2] (setting [5]) is 1480 nM.

In the case of `CC1CCCCC1NC(=O)c1cncc(Br)c1` (centres unmarked) [Example E62, 5-bromo-N-(2-methylcyclohexyl)nicotinamide], the EC50 in series [2] (setting [4]) came to 2420 nM.

As for `Cc1nocc1C(=O)N[C@@H]1CCCc2ccccc21` [Example E25, (R)-3-methyl-N-(1,2,3,4-tetrahydronaphthalen-1-yl)isoxazole-4-carboxamide], the EC50 in series [2] (setting [4]) amounted to 7790 nM.

As for `Cc1c(F)c(F)c(C(=O)NC(C)C(C)C)c(F)c1F` (centres unmarked) [Example E27, 2,3,5,6-tetrafluoro-4-methyl-N-(3-methylbutan-2-yl)benzamide], in series [2] (setting [4]), the EC50 was 140 nM.
